Source: US9034855B2, “Substituted phenylacetate and phenylpropane amides and use thereof” (Bayer Intellectual Property GmbH, priority 2010, dated 2015)

Columns and labels:
[1] = target: T1, human V1a receptor (Homo sapiens, UniProt P37288); assay: Cellular in vitro assay for determining the vasopressin receptor activity (aequorin luminescence, recombinant CHO cells), human V1a; assay type: cell-based; details: CHO cells expressing aequorin, transfected with human V1a receptor; agonist [Arg8]-vasopressin; read-out: IC50 hV1a
T1 construct: expressed in transfected cells; host or cells: CHO K1 (ATCC), constitutively expressing modified aequorin
T1 sequence (P37288 whole entry): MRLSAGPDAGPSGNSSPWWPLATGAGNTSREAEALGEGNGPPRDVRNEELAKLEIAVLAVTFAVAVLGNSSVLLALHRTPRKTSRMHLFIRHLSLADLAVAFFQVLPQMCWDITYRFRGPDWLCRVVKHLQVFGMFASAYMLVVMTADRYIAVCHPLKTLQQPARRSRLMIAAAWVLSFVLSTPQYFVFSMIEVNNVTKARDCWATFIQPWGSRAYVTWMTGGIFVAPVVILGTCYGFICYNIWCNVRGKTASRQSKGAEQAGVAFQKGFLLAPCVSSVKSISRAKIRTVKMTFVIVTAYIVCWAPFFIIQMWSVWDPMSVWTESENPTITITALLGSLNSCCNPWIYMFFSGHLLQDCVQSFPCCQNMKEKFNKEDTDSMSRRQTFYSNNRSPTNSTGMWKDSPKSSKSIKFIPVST
Source text: (§1) B-1. Cellular In Vitro Assay for Determining the Vasopressin Receptor Activity
(§2) The identification of agonists and antagonists of the V1a and V2 vasopressin receptors from humans and rats and also the quantification of the activity of the substances described here takes place using recombinant cell lines. These cells derive originally from a hamster's ovary epithelial cell (Chinese Hamster Ovary, CHO K1, ATCC: American Type Culture Collection, Manassas, Va. 20108, USA). The test cell lines constitutively express a modified form of the calcium-sensitive photoprotein aequorin, which, after reconstitution with the cofactor coelenterazine, emits light when there are increases in the free calcium concentration (Rizzuto R., Simpson A. W., Brini M., Pozzan T.; Nature 358 (1992) 325-327). In addition, the cells are stably transfected with the human or rat V1a or V2 receptors. In the case of the Gs-coupling V2 receptors, the cells are stably transfected with a further gene, which codes for the promiscuous Gα16 protein (Amatruda T. T., Steele D. A., Slepak V. Z., Simon M A., Proc. Na. Acad. Sci. USA 88 (1991), 5587-5591), either independently or as a fusion gene. The resulting vasopressin receptor test cells react to stimulation of the recombinantly expressed vasopressin receptors by intracellular release of calcium ions, which can be quantified by the resulting aequorin luminescence using a suitable luminometer (Milligan G., Marshall F., Rees S., Trends in Pharmaco. Sci. 17 (1996) 235-237).
(§3) On the day before the assay, the cells are plated out in culture medium (DMEM, 10% FCS, 2 mM glutamine, 10 mM HEPES) in 384-well microtiter plates and kept in a cell incubator (96% atmospheric humidity, 5% v/v carbon dioxide, 37° C.). On the day of the assay, the culture medium is replaced by a Tyrode solution (140 mM sodium chloride, 5 mM potassium chloride, 1 mM magnesium chloride, 2 mM calcium chloride, 20 mM glucose, 20 mM HEPES), which additionally contains the cofactor coelenterazine (50 μM), and the microtiter plate is then incubated for a further 3-4 hours. The test substances in various concentrations are placed for 10 to 20 minutes in the wells of the microtiter plate before the agonist [Arg8]-vasopressin is added, and the resulting light signal is measured immediately in the luminometer. The IC50 values are calculated using the GraphPad PRISM computer program (Version 3.02).
(§4) Table A below lists representative IC50 values for the compounds according to the invention transfected with the human V1a or V2 receptor: […]

[2] = target: T2, human V2 receptor (Homo sapiens, UniProt P30518); assay: Cellular in vitro assay for determining the vasopressin receptor activity (aequorin luminescence, recombinant CHO cells), human V2; assay type: cell-based; details: CHO cells expressing aequorin and Gα16, transfected with human V2 receptor; agonist [Arg8]-vasopressin; read-out: IC50 hV2
T2 construct: expressed in transfected cells; host or cells: CHO K1 (ATCC), constitutively expressing modified aequorin, co-transfected with promiscuous G-alpha-16
T2 sequence (P30518 whole entry): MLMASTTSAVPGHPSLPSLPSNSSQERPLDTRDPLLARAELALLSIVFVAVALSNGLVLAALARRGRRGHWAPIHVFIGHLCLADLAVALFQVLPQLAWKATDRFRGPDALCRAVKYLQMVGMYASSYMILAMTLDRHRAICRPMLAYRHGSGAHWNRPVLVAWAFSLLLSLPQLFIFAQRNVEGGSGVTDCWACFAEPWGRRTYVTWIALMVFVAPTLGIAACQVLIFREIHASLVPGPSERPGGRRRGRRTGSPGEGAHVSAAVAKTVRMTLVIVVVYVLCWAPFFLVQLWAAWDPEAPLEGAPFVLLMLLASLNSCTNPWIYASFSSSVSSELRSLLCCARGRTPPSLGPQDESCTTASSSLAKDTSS
Source text: as §1, §2, §3, §4

| SMILES | IC50 [1] | IC50 [2] |
| --- | --- | --- |
| COC(=O)C(C)(C)NC(=O)[C@](C)(NC(=O)Cn1nc(-c2ccc(Cl)cc2)n(C[C@H](O)C(F)(F)F)c1=O)c1cccc(C(F)(F)F)c1 [Example 20, Methyl N-{(2R)-2-[({3-(4-chlorophenyl)-5-oxo-4-[(2S)-3,3,3-trifluoro-2-hydroxypropyl]-4,5-dihydro-1H-1,2,4-triazol-1-yl}acetyl)amino]-2-[3-(trifluoromethyl)phenyl]propanoyl}-2-methylalaninate] | 2.4 nM | 4.5 nM |
| O=C(Cn1nc(-c2ccc(Cl)cc2)n(C[C@H](O)C(F)(F)F)c1=O)NC(C(=O)NC1(C(=O)O)CC1)c1cccc(C(F)(F)F)c1 (single isomer, unassigned) [Example 3] | 554 nM | 467 nM |
| O=C(O)CCNC(=O)C(NC(=O)Cn1nc(-c2ccc(Cl)cc2)n(C2CC2)c1=O)c1cccc(C(F)(F)F)c1 (racemic) [Example 16, N-{({[3-(4-Chlorophenyl)-4-cyclopropyl-5-oxo-4,5-dihydro-1H-1,2,4-triazol-1-yl]acetyl}amino) [3-(trifluoromethyl)phenyl]acetyl}-beta-alanine] | 524 nM | 262 nM |
| NC(=O)CCNC(=O)C(NC(=O)Cn1nc(-c2ccc(Cl)cc2)n(C[C@H](O)C(F)(F)F)c1=O)c1cccc(C(F)(F)F)c1 (single isomer, unassigned) [Example 17] | 1420 nM | 22 nM |
| COC(=O)C(C)(C)NC(=O)C(NC(=O)Cn1nc(-c2ccc(Cl)cc2)n(C2CC2)c1=O)c1cccc(C(F)(F)F)c1 (racemic) [Example 11, Methyl N-{({[3-(4-chlorophenyl)-4-cyclopropyl-5-oxo-4,5-dihydro-1H-1,2,4-triazol-1-yl]acetyl}-amino)[3-(trifluoromethyl)phenyl]acetyl}-2-methylalaninate] | 28 nM | 497 nM |

The remaining lines, values ahead:

| IC50 [1] | IC50 [2] | SMILES |
| --- | --- | --- |
| 3 nM | 19.7 nM | O=C(Cn1nc(-c2ccc(Cl)cc2)n(C[C@H](O)C(F)(F)F)c1=O)NC(C(=O)NCCOC(F)(F)F)c1cccc(C(F)(F)F)c1 (single isomer, unassigned) [Example 60] |
| 7.1 nM | 1270 nM | CC(C)(NC(=O)C(NC(=O)Cn1nc(-c2ccc(Cl)cc2)n(CCC(F)(F)F)c1=O)c1ccccc1C(F)(F)F)C(N)=O (racemic) [Example 32, N^2-{({[3-(4-Chlorophenyl)-5-oxo-4-(3,3,3-trifluoropropyl)-4,5-dihydro-1H-1,2,4-triazol-1-yl]acetyl}amino) [2-(trifluoromethyl)phenyl]acetyl}-2-methylalaninamide] |
| 11.1 nM | 8.1 nM | CC(C)(NC(=O)C[C@H](NC(=O)Cn1nc(-c2ccc(Cl)cc2)n(C[C@H](O)C(F)(F)F)c1=O)c1cccc(C(F)(F)F)c1)C(N)=O [Example 40, N^2-{(3S)-3-[({3-(4-Chlorophenyl)-5-oxo-4-[(2S)-3,3,3-trifluoro-2-hydroxypropyl]-4,5-dihydro-1H-1,2,4-triazol-1-yl}acetyl)amino]-3-[3-(trifluoromethyl)phenyl]propanoyl}-2-methylalaninamide] |
| 17 nM | 1050 nM | CC(C)(NC(=O)C(NC(=O)Cn1nc(-c2ccc(Cl)cc2)n(Cc2ccccc2F)c1=O)c1ccccc1Cl)C(N)=O (racemic) [Example 33, N^2-[(2-Chlorophenyl)({[3-(4-chlorophenyl)-4-(2-fluorobenzyl)-5-oxo-4,5-dihydro-1H-1,2,4-triazol-1-yl]acetyl}amino)acetyl]-2-methylalaninamide] |
| 1 nM | 3.3 nM | CC(C)(NC(=O)C(NC(=O)Cn1nc(-c2ccc(Cl)cc2)n(C[C@H](O)C(F)(F)F)c1=O)c1cccc(C(F)(F)F)c1)C(N)=O (single isomer, unassigned) [Example 29] |
| 1.5 nM | 3.6 nM | CC(C)(CO)NC(=O)C(NC(=O)Cn1nc(-c2ccc(Cl)cc2)n(C[C@H](O)C(F)(F)F)c1=O)c1cccc(C(F)(F)F)c1 (single isomer, unassigned) [Example 41] |
